Test results taken from article PMC10653547, “Synergistic effect of two antimicrobial peptides, BP203 and MAP-0403 J-2 with conventional antibiotics against colistin-resistant Escherichia coli and Klebsiella pneumoniae clinical isolates” (PLOS ONE, 2023).

Experiments:
[1] = test system: colistin-resistant E. coli clinical isolates; experiment: Checkerboard assay for synergy testing; type: cell-based, Escherichia coli; settings: checkerboard Ceftazedime+BP203
Method: (§1) The synergistic activities of various two-antimicrobial combinations against colistin-resistant E. coli and K. pneumoniae isolates were evaluated using the checkerboard assay, which was performed in 96-well plates. […] Two-fold serial dilutions of peptides and antibiotics were independently prepared in CAMHB. Afterward, a mixture of different concentrations of the antibiotics and peptides was added to the wells of the microplates. Antibiotics and peptides were also dispended alone in the first row and the first column, respectively. Bacterial inoculum was added to the 96-well plate to achieve a final concentration of 5 × 10^5 CFU/mL. Then, plates were incubated at 37 °C for 20–24 h. MICs were recorded as the minimum concentration of antimicrobial agents without bacterial growth. The interaction between the antimicrobials was determined by calculating the fractional inhibitory concentration index (FICI) according to the formula: FICI = FIC(drug A) + FIC(drug B), where FIC = the MIC of the drug when in the combination/MIC of drug tested individually.

[2] = test system: colistin-resistant K. pneumoniae clinical isolates; experiment: Checkerboard assay for synergy testing; type: cell-based, Klebsiella pneumoniae; settings: checkerboard Ceftazedime+BP203
Method: as §1

SMILES: CC(C)(O/N=C(\C(=O)N[C@@H]1C(=O)N2C(C(=O)[O-])=C(C[n+]3ccccc3)CS[C@H]12)c1csc(N)n1)C(=O)O [Ceftazedime]
- MIC alone ([1]; isolate EC-01): 8 µg/mL
- MIC combination ([1]; isolate EC-01): 4 µg/mL
- MIC alone ([1]; isolate EC-02): 16 µg/mL
- MIC combination ([1]; isolate EC-02): 4 µg/mL
- MIC alone ([1]; isolate EC-03): 32 µg/mL
- MIC combination ([1]; isolate EC-03): 8 µg/mL
- MIC alone ([1]; isolate EC-04): 32 µg/mL
- MIC combination ([1]; isolate EC-04): 8 µg/mL
- MIC alone ([1]; isolate EC-05): 1 µg/mL
- MIC combination ([1]; isolate EC-05): 0.25 µg/mL
- MIC alone ([1]; isolate EC-06): 16 µg/mL
- MIC combination ([1]; isolate EC-06): 0.5 µg/mL
- MIC alone ([1]; isolate EC-07): 16 µg/mL
- MIC combination ([1]; isolate EC-07): 8 µg/mL
- MIC alone ([1]; isolate EC-08): 0.5 µg/mL
- MIC combination ([1]; isolate EC-08): 0.25 µg/mL
- MIC alone ([1]; isolate EC-09): 16 µg/mL
- MIC combination ([1]; isolate EC-09): 8 µg/mL
- MIC alone ([1]; isolate EC-10): 8 µg/mL
- MIC combination ([1]; isolate EC-10): 4 µg/mL
- MIC alone ([2]; isolate KP-01): 128 µg/mL
- MIC combination ([2]; isolate KP-01): 8 µg/mL
- MIC alone ([2]; isolate KP-02): 128 µg/mL
- MIC combination ([2]; isolate KP-02): 16 µg/mL
- MIC alone ([2]; isolate KP-03): 512 µg/mL
- MIC combination ([2]; isolate KP-03): 128 µg/mL
- MIC alone ([2]; isolate KP-04): 512 µg/mL
- MIC combination ([2]; isolate KP-04): 512 µg/mL
- MIC alone ([2]; isolate KP-05): 512 µg/mL
- MIC combination ([2]; isolate KP-05): 4 µg/mL
- MIC alone ([2]; isolate KP-06): 256 µg/mL
- MIC combination ([2]; isolate KP-06): 16 µg/mL
- MIC alone ([2]; isolate KP-07): 1020 µg/mL
- MIC combination ([2]; isolate KP-07): 512 µg/mL
- MIC alone ([2]; isolate KP-08): 512 µg/mL
- MIC combination ([2]; isolate KP-08): 64 µg/mL
- MIC alone ([2]; isolate KP-09): 512 µg/mL
- MIC combination ([2]; isolate KP-09): 128 µg/mL
- MIC alone ([2]; isolate KP-10): 512 µg/mL
- MIC combination ([2]; isolate KP-10): 32 µg/mL
